The values below come from US9468690B2, “Decorin gene delivery system and cancer treatment” ([…] CO., LTD., priority 2005, dated 2016).

What all share (type): cell-based, human
The subject of experiment [1] is U343 cells. Put plainly: TUNEL assay. As to the method:
(§1) U343 (5×10^4), U87MG (5×10^4), C33A (5×10^5), Hep3B (4×10^5) and A549 (5×10^4) cells were plated onto a chamber slide and then infected with adenovirus at an MOI of 0.2-20. Following 24 hr and 48 hr of infection, medium was removed and TUNNEL (terminal deoxynucleotidyl transferase(TdT)-mediated dUTP nick end labeling) assay was carried out according to the manufacturer's instruction of ApopTag kit (Intergen, Purchase, N.Y.). For color development, cells were incubated with peroxidase-conjugated avidin and DAB (diaminobenzidine; DAKO, Carpinteria, Calif.). At the time that color of cells became brown, cells were counterstained with 0.5% methyl green for 10 min and observed under microscope in more than 4 selected fields. The ratio of stained cells to total cells was calculated.

Experiment [2] concerns U87MG cells. Put plainly: TUNEL assay. As to the method:
as §1

Experiment [3] concerns A549 cells. Put plainly: TUNEL assay. As to the method: as §1
The test system of experiment [4] is Hep3B cells. The experiment can be described thus: TUNEL assay. As to the method: as §1
Experiment [5] deals with C33A cells. Put plainly: TUNEL assay. On the procedure:
as §1

In experiment [6] the test system is U343 cells. Put plainly: Flow cytometry after PI staining, subG1 cell population. As to the method:
(§2) To examine apoptosis induced by decorin, human tumor cell lines, U343, U87MG, C33A, Hep3B and A549 were introduced to 25T culture flasks and 24 hr later, were infected with each adenovirus at MOIs of 0.5-50. […] After 48 hr, 72 hr and 96 hr of infection, the infected cells were collected and fixed in 70% ethanol at 4° C. over 24 hr. Following the fixation, the cells were incubated at 4° C. with a mixture of PI (propidium iodide, 50 μg/ml) and RNase (ribonuclease) for 15 min and the FACS analysis was then performed.

Experiment [7] relates to U87MG cells. The description is as above. As to the method: as §2
Experiment [8] concerns A549 cells. Described as above. On the procedure: as §2
Experiment [9] has as its system Hep3B cells. Described as above. On the procedure: as §2
In experiment [10] the test system is C33A cells. Described as above. As to the method:
as §2

Experiment [11] deals with U343 cells. Put plainly: Annexin V-FITC and PI dual staining, flow cytometry. Conditions: FIG. 9b, replication-incompetent adenoviruses. From the text: In addition, to examine early apoptosis induced by decorin, several human tumor cell lines were infected with each adenovirus as described above. The infected cells were collected and then processed for Annexin V/PI dual staining according to manufacturer's instruction in the ApoAlert V-FITC (fluorescein isothiocyanate) apoptosis detection kit (Clontech, Palo Alto, Calif.), followed by flow cytometric analysis.
Background: In flow cytometry, cells or beads pass a laser one at a time.

Setting [12] is: Table 3 lower part, replication-incompetent adenoviruses.
Setting [13] is: Table 3 upper part, oncolytic adenoviruses.
[14] abbreviates: Table 1, oncolytic adenoviruses, 48-96 hr post-infection.
[15] abbreviates: Table 2, replication-incompetent adenoviruses.

With `CCc1c2c(nc3ccc(OC(=O)N4CCC(N5CCCCC5)CC4)cc13)-c1cc3c(c(=O)n1C2)COC(=O)[C@]3(O)CC` [CPT, camptothecin-11], the “Proportion of apoptotic cells (%)” value in the experiment on U343 cells [1] (setting [12]) was 74.67 ± 12.38%; in the experiment with U343 cells [1] (setting [13]), 53.5 ± 7.45%; with U87MG cells [2] (setting [12]), 40.00 ± 13.17%; with U87MG cells [2] (setting [13]), 83.0 ± 29.29%; with A549 cells [3] (setting [12]), 69.80 ± 8.38%; in the experiment with A549 cells [3] (setting [13]) it was 37.5 ± 5.35%. The “Proportion of apoptotic cells (%)” value in the experiment on Hep3B cells [4] (setting [12]) was 75.86 ± 3.11%; in the experiment on Hep3B cells [4] (setting [13]) it was 71.2 ± 15.73%; in the experiment with C33A cells [5] (setting [12]), 70.51 ± 15.90%; with C33A cells [5] (setting [13]) it was 60.1 ± 25.91%. Moreover, the “subG1 cell population (%)” value was found to be 59.86% with U343 cells [6] (setting [14]); 29.02% with U343 cells [6] (setting [15]); 14.78% with U87MG cells [7] (setting [14]); 12.51% with U87MG cells [7] (setting [15]); 17.96% with A549 cells [8] (setting [14]); 21.59% in the experiment on A549 cells [8] (setting [15]). Further, the “subG1 cell population (%)” value in the experiment with Hep3B cells [9] (setting [14]) turned out to be 5.99%; in the experiment on Hep3B cells [9] (setting [15]), 16.60%; with C33A cells [10] (setting [14]), 26.44%; with C33A cells [10] (setting [15]), 68.20%. Moreover, in the experiment with U343 cells [11], the “apoptotic rate (Annexin V-FITC+/PI−)” value amounted to 19.41%.
